Results taken from US4923857A, “3-Alkenyl-1-azabicyclo(3.2.0)hept-2-ene-2-carboxylic acid compounds” (Fujisawa Pharmaceutical Company, Ltd., priority 1988, dated 1990).

Test system: S. aureus 209P JC-1
Assay: in vitro Antimicrobial Activity, two-fold agar-plate dilution method (MIC)
Assay type: cell-based
Conditions: Staphylococcus aureus, HI-agar, 37° C., 20 hours, 10^6 viable cells per ml, read-out: MIC (minimal inhibitory concentration)
Protocol: in vitro Antimicrobial Activity was determined by the two-fold agar-plate dilution method as described below.
One loopful of an overnight culture of a test strain in Trypticase-soy broth (10^6 viable cells per ml) was streaked on heart infusion agar (HI-agar) containing graded concentrations of the test compound, and the minimal inhibitory concentration (MIC) was expressed in terms of […] after incubation at 37° C. for 20 hours.

Structure (SMILES): C/C(=C\[C@@H]1CCCN1)C1=C(C(=O)O)N2C(=O)[C@H]([C@@H](C)O)[C@H]2C1 [Example 4-(1), (5R,6S)-6-[(1R)-1-hydroxyethyl]-7-oxo-3-[(E)-2-{(2S)-pyrrolidin-2-yl}-1-methylethenyl]-1-azabicyclo [3.2.0]hept-2-ene-2-carboxylic acid]
- MIC: ≤ 0.025 µg/mL
